Source: patent US7435837B2, “Dihydrobenzofuranyl alkanamine derivatives and methods for using same” (Wyeth, priority 2003, dated 2008)
Structures can show the parent of a compound that is named as a salt.

Question: For `CNCC1Cc2cc(Cl)cc(C3CCCCC3)c2O1` (racemic) (as salt: hydrochloride) [Example 12, (±)-N-[(5-chloro-7-cyclohexyl-2,3-dihydro-1-benzofuran-2-yl)methyl]-N-methylamine], which melting point is on record?
Answer: The melting point was 125 to 128 °C.

Question: Which melting point does the source give for `COc1cc2c(c(C(C)(C)C)c1)OC(CN)C2` (racemic) (as salt: hydrochloride) [Example 13, (±)-(7-tert-butyl-5-methoxy-2,3-dihydro-1-benzofuran-2-yl)methylamine] here?
Answer: Its melting point is 174 to 176 °C.

Question: With `NCC1Cc2c(C(F)(F)F)ccc(Cl)c2O1` (racemic) (as salt: hydrochloride) [Example 14, (±)-[7-chloro-4-(trifluoromethyl)-2,3-dihydro-1-benzofuran-2-yl]methanamine] as the compound, how does the melting point read?
Answer: The melting point was over 250 °C.

Question: With `NCC1Cc2cccc(Cc3ccccc3)c2O1` (racemic) (as salt: hydrochloride) [Example 15, (±)-1-(7-benzyl-2,3-dihydro-1-benzofuran-2-yl)methanamine] as the compound, how does the melting point read?
Answer: The melting point was 107 to 111 °C (dec.).

Question: For `CC(C)c1cccc2c1OC(CN)C2` (racemic) (as salt: hydrochloride) [Example 18, (±)-(7-isopropyl-2,3-dihydro-1-benzofuran-2-yl)methylamine], which melting point is on record?
Answer: Its melting point is 160 to 164 °C (dec.).

Question: With `Cc1c(Cl)cc(C(C)C)c2c1CC(CN)O2` (racemic) (as salt: hydrochloride) [Example 21, (±)-1-(5-chloro-7-isopropyl-4-methyl-2,3-dihydro-1-benzofuran-2-yl)methanamine] as the compound, how does the melting point read?
Answer: Its melting point is > 225 °C (dec.).

Question: For `CC(C)(C)c1cccc2c1OC(CN)C2` (racemic) (as salt: hydrochloride) [Example 24, (±)-1-(7-tert-butyl-2,3-dihydro-1-benzofuran-2-yl)methanamine], which melting point is on record?
Answer: Its melting point is 177 to 180 °C (dec.).

Question: For `CC(C)(C)c1cc(Cl)cc2c1OC(CN)C2` (racemic) (as salt: hydrochloride) [Example 27, (±)-1-(7-tert-butyl-5-chloro-2,3-dihydro-1-benzofuran-2-yl)methanamine], which melting point is on record?
Answer: Its melting point is 229 to 231 °C.

Question: For `COc1ccc2c(c1)OC(CN)C2` (racemic) (as salt: hydrochloride) [Example 30, (±)-1-(6-methoxy-2,3-dihydro-1-benzofuran-2-yl)methanamine], which melting point is on record?
Answer: The melting point was over 220 °C.

Question: Which melting point does the source give for `NCC1Cc2cccc(-c3cc(C(F)(F)F)cc(C(F)(F)F)c3)c2O1` (racemic) (as salt: hydrochloride) [Example 32, (±)-1-{7-[3,5-bis(trifluoromethyl)phenyl]-2,3-dihydro-1-benzofuran-2-yl}methanamine] here?
Answer: Its melting point is 174 to 175 °C (dec.).

Question: Which melting point does the source give for `NCC1Cc2cccc(-c3cccc4ccccc34)c2O1` (racemic) (as salt: hydrochloride) [Example 33, (±)-1-[7-(1-naphthyl)-2,3-dihydro-1-benzofuran-2-yl]methanamine] here?
Answer: Its melting point is 120 to 124 °C.

Question: For `NCC1Cc2cccc(-c3ccc(F)c(Cl)c3)c2O1` (racemic) (as salt: hydrochloride) [Example 34, (±)-1-[7-(3-chloro-4-fluorophenyl)-2,3-dihydro-1-benzofuran-2-yl]methanamine], which melting point is on record?
Answer: Its melting point is over 210 °C.

Question: Which melting point does the source give for `NCC1Cc2cccc(-c3cc(Cl)cc(Cl)c3)c2O1` (racemic) (as salt: hydrochloride) [Example 35, (±)-1-[7-(3,5-dichlorophenyl)-2,3-dihydro-1-benzofuran-2-yl]methanamine] here?
Answer: Its melting point is 165 to 168 °C.

Question: Which melting point does the source give for `NCC1Cc2cccc(-c3ccccc3)c2O1` (racemic) (as salt: hydrochloride) [Example 36, (±)-1-(7-phenyl-2,3-dihydro-1-benzofuran-2-yl)methanamine] here?
Answer: Its melting point is > 200 °C (dec.).

Question: With `NCC1Cc2cccc(-c3ccc4ccccc4c3)c2O1` (racemic) (as salt: hydrochloride) [Example 39, (±)-1-[7-(2-naphthyl)-2,3-dihydro-1-benzofuran-2-yl]methanamine] as the compound, how does the melting point read?
Answer: The melting point was 135 to 140 °C.

Question: For `Cc1cccc(-c2cccc3c2OC(CN)C3)c1` (racemic) (as salt: hydrochloride) [Example 41, (±)-1-[7-(3-methylphenyl)-2,3-dihydro-1-benzofuran-2-yl]methanamine], which melting point is on record?
Answer: Its melting point is > 210 °C (dec.).

Question: For `NCC1Cc2cccc(-c3ccsc3)c2O1` (racemic) (as salt: hydrochloride) [Example 44, (±)-1-(7-thien-3-yl-2,3-dihydro-1-benzofuran-2-yl)methanamine], which melting point is on record?
Answer: Its melting point is over 200 °C.

Question: For `Cc1ccccc1-c1cccc2c1OC(CN)C2` (racemic) (as salt: hydrochloride) [Example 47, (±)-1-[7-(2-methylphenyl)-2,3-dihydro-1-benzofuran-2-yl]methanamine], which melting point is on record?
Answer: The melting point was over 200 °C.

Question: For `NCC1Cc2cccc(-c3ccccc3F)c2O1` (racemic) (as salt: hydrochloride) [Example 50, (±)-1-[7-(2-fluorophenyl)-2,3-dihydro-1-benzofuran-2-yl]methanamine], which melting point is on record?
Answer: Its melting point is 244 to 246 °C.

Question: Which melting point does the source give for `NCC1Cc2cccc(-c3ccccc3C(F)(F)F)c2O1` (racemic) (as salt: hydrochloride) [Example 53, (±)-1-{7-[2-(trifluoromethyl)phenyl]-2,3-dihydro-1-benzofuran-2-yl}methanamine] here?
Answer: Its melting point is 204 to 205 °C.

Question: Which melting point does the source give for `Cc1cccc(C)c1-c1cccc2c1OC(CN)C2` (racemic) (as salt: hydrochloride) [Example 56, (±)-1-[7-(2,6-dimethylphenyl)-2,3-dihydro-1-benzofuran-2-yl]methanamine] here?
Answer: The melting point was over 250 °C.

Question: Which melting point does the source give for `COc1ccccc1-c1cccc2c1OC(CN)C2` (racemic) (as salt: hydrochloride) [Example 59, (±)-1-[7-(2-methoxyphenyl)-2,3-dihydro-1-benzofuran-2-yl]methanamine] here?
Answer: Its melting point is over 250 °C.

Question: Which melting point does the source give for `NCC1Cc2cccc(-c3ccccc3Cl)c2O1` (racemic) (as salt: hydrochloride) [Example 60, (±)-1-[7-(2-chlorophenyl)-2,3-dihydro-1-benzofuran-2-yl]methanamine] here?
Answer: Its melting point is over 250 °C.

Question: Which melting point does the source give for `CC(C)c1ccccc1-c1cccc2c1OC(CN)C2` (racemic) (as salt: hydrochloride) [Example 61, (±)-[7-(2-isopropylphenyl)-2,3-dihydro-1-benzofuran-2-yl]methylamine] here?
Answer: Its melting point is 202 to 204 °C.

Question: For `NCC1Cc2cccc(-c3cccc(F)c3)c2O1` (racemic) (as salt: hydrochloride) [Example 64, (±)-1-[7-(3-fluorophenyl)-2,3-dihydro-1-benzofuran-2-yl]methanamine], which melting point is on record?
Answer: Its melting point is 200 to 202 °C.

Question: For `NCC1Cc2cccc(-c3cccc(Cl)c3)c2O1` (racemic) (as salt: hydrochloride) [Example 65, (±)-1-[7-(3-chlorophenyl)-2,3-dihydro-1-benzofuran-2-yl]methanamine], which melting point is on record?
Answer: Its melting point is 150 to 154 °C.

Question: Which melting point does the source give for `COc1cccc(-c2cccc3c2OC(CN)C3)c1` (racemic) (as salt: hydrochloride) [Example 68, (±)-1-[7-(3-methoxyphenyl)-2,3-dihydro-1-benzofuran-2-yl]methanamine] here?
Answer: The melting point was 152 to 154 °C.

Question: With `NCC1Cc2cccc(-c3cccc(C(F)(F)F)c3)c2O1` (racemic) (as salt: hydrochloride) [Example 69, (±)-1-{7-[3-(trifluoromethyl)phenyl]-2,3-dihydro-1-benzofuran-2-yl}methanamine] as the compound, how does the melting point read?
Answer: The melting point was 172 to 174 °C.

Question: With `Cc1ccc(-c2cccc3c2OC(CN)C3)cc1` (racemic) (as salt: hydrochloride) [Example 70, (±)-1-[7-(4-methylphenyl)-2,3-dihydro-1-benzofuran-2-yl]methanamine] as the compound, how does the melting point read?
Answer: The melting point was 231 to 232 °C.

Question: For `NCC1Cc2cccc(-c3ccc(F)cc3)c2O1` (racemic) (as salt: hydrochloride) [Example 73, (±)-1-[7-(4-fluorophenyl)-2,3-dihydro-1-benzofuran-2-yl]methanamine], which melting point is on record?
Answer: The melting point was 237 to 240 °C.

Question: For `NCC1Cc2cccc(-c3ccc(Cl)cc3)c2O1` (racemic) (as salt: hydrochloride) [Example 76, (±)-1-[7-(4-chlorophenyl)-2,3-dihydro-1-benzofuran-2-yl]methanamine], which melting point is on record?
Answer: The melting point was 212 to 214 °C.

Question: With `COc1ccc(-c2cccc3c2OC(CN)C3)cc1` (racemic) (as salt: hydrochloride) [Example 79, (±)-1-[7-(4-methoxyphenyl)-2,3-dihydro-1-benzofuran-2-yl]methanamine] as the compound, how does the melting point read?
Answer: The melting point was 176 to 178 °C.

Question: With `NCC1Cc2cccc(-c3ccc(C(F)(F)F)cc3)c2O1` (racemic) (as salt: hydrochloride) [Example 82, (±)-1 {7-[4-(trifluoromethyl)phenyl]-2,3-dihydro-1-benzofuran-2-yl}methanamine] as the compound, how does the melting point read?
Answer: The melting point was over 250 °C.

Question: For `NCC1Cc2cccc(-c3ccc(Cl)cc3Cl)c2O1` (racemic) (as salt: hydrochloride) [Example 83, (±)-1-[7-(2,4-dichlorophenyl)-2,3-dihydro-1-benzofuran-2-yl]methanamine], which melting point is on record?
Answer: Its melting point is 198 to 200 °C.

Question: With `NCC1Cc2cc(Cl)cc(-c3ccccc3)c2O1` (racemic) (as salt: hydrochloride) [Example 84, (±)-1-(5-chloro-7-phenyl-2,3-dihydro-1-benzofuran-2-yl)methanamine] as the compound, how does the melting point read?
Answer: Its melting point is 258 °C (dec.).

Question: For `NCC1Cc2cc(Cl)cc(-c3ccccc3Cl)c2O1` (racemic) (as salt: hydrochloride) [Example 87, (±)-1-[5-chloro-7-(2-chlorophenyl)-2,3-dihydro-1-benzofuran-2-yl]methanamine], which melting point is on record?
Answer: Its melting point is 231 to 234 °C.

Question: Which melting point does the source give for `Cc1cccc(-c2cc(Cl)cc3c2OC(CN)C3)c1` (racemic) (as salt: hydrochloride) [Example 88, (±)-1-[5-chloro-7-(3-methylphenyl)-2,3-dihydro-1-benzofuran-2-yl]methanamine] here?
Answer: Its melting point is 268 to 271 °C.

Question: Which melting point does the source give for `NCC1Cc2cc(Cl)cc(-c3cccc(Cl)c3)c2O1` (racemic) (as salt: hydrochloride) [Example 89, (±)-1-[5-chloro-7-(3-chlorophenyl)-2,3-dihydro-1-benzofuran-2-yl]methanamine] here?
Answer: The melting point was 195 °C (dec.).

Question: Which melting point does the source give for `NCC1Cc2cc(Cl)cc(-c3ccsc3)c2O1` (racemic) (as salt: hydrochloride) [Example 90, (±)-(5-chloro-7-thien-3-yl-2,3-dihydro-1-benzofuran-2-yl)methylamine] here?
Answer: Its melting point is 230 °C (dec.).
